Test results published in paper PMC10090470 (Parasitology, 2023).
Where two headings read alike, the source gives them in different places.

Experiments:
[1] = in vitro; format: cell-based; settings: mouse
Description: L929 culture cells were seeded in 96-well plates with 4 × 10^3 cells per well and sustained in RPMI medium supplemented with 10% FBS. The compounds were added (0–400 μM, serially diluted 1:2) and the non-infected cultures incubated for 96 h at 37°C/5% CO2. Then, their viability was assessed by Alamar Blue reagent following the manufacturer's specifications. Controls were carried out with parasites kept under the same conditions in the absence of the compounds.

[2] = test system: intracellular forms of Trypanosoma cruzi (Tulahuen strain, DTU VI); test: In vitro activity against intracellular forms of T. cruzi (Tulahuen strain, β-galactosidase) in L929 cells; format: cell-based; settings: for Selectivity index (IC50/EC50): SI = LC50 (L929) / EC50 (intracellular forms); for EC90 / EC50: Tulahuen strain in L929 cells, 96 h, 95% confidence interval in brackets; for EC90: read-out: Activity against intracellular forms of the parasite EC90; for EC50: read-out: Activity against intracellular forms of the parasite EC50
Description: L929 cells were infected with trypomastigotes obtained from the supernatant of infected cultures. After 2 h of interaction (10 parasites per host cell), the parasites which were not internalized were removed by replacing the RPMI medium. After 48 h of incubation, the compounds were added to the infected cultures (0–10 μM, serially diluted 1:2) and the cultures incubated for 96 h at 37°C/5% CO2. BZ and DMSO (solvent used for the compounds) were run in parallel as positive and negative controls, respectively. After the elapsed time, 50 μL per well of chlorophenol red-β-D-galactopyranoside was added and a reading was done in a spectrophotometer at 570 nm (Romanha et al., [2010]).

[3] = test system: bloodstream trypomastigote forms of Trypanosoma cruzi (Y strain, DTU II); test: In vitro activity against bloodstream trypomastigotes (Y strain); format: cell-based; settings: 95% confidence interval in brackets
Description: Trypomastigote forms were incubated in 96-well microplates. Briefly, 100 μL of a BT suspension (in RPMI medium + 5% FBS) containing 10^7 parasites mL^−1 was added to the same volume of each compound diluted in RPMI + 5% FBS at twice of the desired final concentration (0–50 μM, serially diluted 1:2). After 2 and 24 h at 37°C, the number of live parasites was determined by light microscope quantification using a Neubauer chamber. Controls were carried out with parasites kept under the same conditions in the absence of the compounds. BZ was run in parallel.

[4] = test system: bloodstream trypomastigote forms of Trypanosoma cruzi (Y strain, DTU II); settings: ref Simões-Silva et al. (2019), cited from earlier work; for EC50: read-out: Activity against bloodstream trypomastigotes EC50; for EC50 / EC90: Y strain; for EC90: read-out: Activity against bloodstream trypomastigotes EC90
[5] = test system: intracellular forms of Trypanosoma cruzi (Tulahuen strain, DTU VI); settings: read-out: Activity against intracellular forms of the parasite EC50, ± S.D., ref Simões-Silva et al. (2019); cited from earlier work
[6] = test system: L929 cells; set-up: method as in Simões-Silva et al. (2019); settings: ± S.D., ref Simões-Silva et al. (2019), read-out: Toxicity against L929 cells LC50; cited from earlier work
[7] = Trypanosoma cruzi, TULAHUEN, L929, 96 h

Cc1ccc(CC(=O)c2ccc(Br)cc2OCCCCn2ccnc2)cc1Nc1nccc(-c2cccnc2)n1 [LS2/128]
CC50 at 96 h [1]: 17.9 µM
Selectivity index (IC50/EC50) [2]: 4.22
EC90 [2, 7]: > 10 µM
EC50 ([2]; Trypanosoma cruzi): 4.25 µM
EC50 ([3]; Trypanosoma cruzi, 2 h): 5.93 µM
EC90 ([3]; Trypanosoma cruzi, 2 h): 8.93 µM
EC50 ([3]; Trypanosoma cruzi, 24 h): 4.12 µM
EC90 ([3]; Trypanosoma cruzi, 24 h): 5.69 µM

Cc1ccc(CC(=O)c2ccccc2OCCCCn2ccnc2)cc1Nc1nccc(-c2cccnc2)n1 [LS2/98]
CC50 at 96 h [1]: 12.2 µM
Selectivity index (IC50/EC50) [2]: 3.93
EC90 [2, 7]: > 10 µM
EC50 ([2]; Trypanosoma cruzi): 3.31 µM
EC50 ([3]; Trypanosoma cruzi, 2 h): > 50 µM
EC90 ([3]; Trypanosoma cruzi, 2 h): > 50 µM
EC50 ([3]; Trypanosoma cruzi, 24 h): 9.59 µM
EC90 ([3]; Trypanosoma cruzi, 24 h): 22 µM

Cc1ccc(CC(=O)c2cccc(OCCCCn3ccnc3)c2)cc1Nc1nccc(-c2cccnc2)n1 [LS2/97]
CC50 at 96 h [1]: 19.3 µM
Selectivity index (IC50/EC50) [2]: 14.81
EC90 [2, 7]: > 10 µM
EC50 ([2]; Trypanosoma cruzi): 1.3 µM
EC50 ([3]; Trypanosoma cruzi, 2 h): 7.84 µM
EC90 ([3]; Trypanosoma cruzi, 2 h): 11.4 µM
EC50 ([3]; Trypanosoma cruzi, 24 h): 4.72 µM
EC90 ([3]; Trypanosoma cruzi, 24 h): 8.52 µM

O=C(Cn1ccnc1[N+](=O)[O-])NCc1ccccc1 [BZ, benznidazole]
activity against bloodstream trypomastigotes in words ([4]; after 2 h of drug exposure): completely inactive
EC50 ([4]; 2 h): > 50 µM
EC50 ([4]; 24 h, ± S.D.): 14.4 ± 3.4 µM
EC90 ([4]; 2 h): > 50 µM
EC90 ([4]; 24 h, ± S.D.): 22.8 ± 7.8 µM
EC50 [5]: 4.1 ± 1.3 µM
CC50 [6]: > 400 µM

COc1ccc(C(=O)Cc2ccc(C)c(Nc3nccc(-c4cccnc4)n3)c2)cc1OCCCCn1ccnc1 [LS2/116]
CC50 at 96 h [1]: 5.13 µM
Selectivity index (IC50/EC50) [2]: 3.49
EC90 [2, 7]: > 10 µM
EC50 ([2]; Trypanosoma cruzi): 1.47 µM
EC50 ([3]; Trypanosoma cruzi, 2 h): 12 µM
EC90 ([3]; Trypanosoma cruzi, 2 h): 28.1 µM
EC50 ([3]; Trypanosoma cruzi, 24 h): 3.89 µM
EC90 ([3]; Trypanosoma cruzi, 24 h): 7.09 µM

Cc1ccc(CC(=O)c2ccc([N+](=O)[O-])c(OCCCCn3ccnc3)c2)cc1Nc1nccc(-c2cccnc2)n1 [LS2/130]
Selectivity index (IC50/EC50) [2]: 4.84
EC90 [2, 7]: 9.44 µM
EC50 ([2]; Trypanosoma cruzi): 1.05 µM
EC50 ([3]; Trypanosoma cruzi, 2 h): 5.69 µM
EC90 ([3]; Trypanosoma cruzi, 2 h): 7.31 µM
EC50 ([3]; Trypanosoma cruzi, 24 h): 3.4 µM
EC90 ([3]; Trypanosoma cruzi, 24 h): 4.8 µM

Cc1ccc(CC(=O)c2ccc(OCCCCn3ccnc3)c(Br)c2)cc1Nc1nccc(-c2cccnc2)n1 [LS2/89]
CC50 at 96 h [1]: 12.3 µM
Selectivity index (IC50/EC50) [2]: 64.74
EC90 [2, 7]: 1.6 µM
EC50 ([2]; Trypanosoma cruzi): 0.19 µM
EC90 [2]: 1.68 µM
EC90 ([3]; 24 h): 4.93 µM
EC50 ([3]; Trypanosoma cruzi, 2 h): 4.83 µM
EC90 ([3]; Trypanosoma cruzi, 2 h): 8.12 µM
EC50 ([3]; Trypanosoma cruzi, 24 h): 2.67 µM
EC90 ([3]; Trypanosoma cruzi, 24 h): 4.9 µM

COc1cc(C(=O)Cc2ccc(C)c(Nc3nccc(-c4cccnc4)n3)c2)ccc1OCCCCn1ccnc1 [LS2/122]
CC50 at 96 h [1]: 5.44 µM
Selectivity index (IC50/EC50) [2]: 1.22
EC90 [2, 7]: > 10 µM
EC50 ([2]; Trypanosoma cruzi): 4.47 µM
EC50 ([3]; Trypanosoma cruzi, 2 h): 11.1 µM
EC90 ([3]; Trypanosoma cruzi, 2 h): 22.1 µM
EC50 ([3]; Trypanosoma cruzi, 24 h): 3.27 µM
EC90 ([3]; Trypanosoma cruzi, 24 h): 5.34 µM
